Measurements taken from US8959984B2, “Proteome-wide quantification of small molecule binding to cellular target proteins” (priority 2007, dated 2015).
pKd, pKi: −log10 of the molar value. Where “and” joins values, the source holds several entries; their conditions need not be identical. Equal entries are not always repeated. Where two headings read alike, the source gives them in different places.

Legend:
BRK (PTK6) = target: T1, BRK (PTK6) (Homo sapiens, UniProt Q13882); assay: binding to AX14596 beads (HeLa lysate, SILAC MS)
T1 construct: endogenous in cells; host or cells: HeLa S3

SgK085 (MYLK3) = target: T2, SgK085 (MYLK3) (Homo sapiens, UniProt Q32MK0); assay: binding to AX14596 beads (HeLa lysate, SILAC MS)
T2 sequence (Q32MK0 1-819): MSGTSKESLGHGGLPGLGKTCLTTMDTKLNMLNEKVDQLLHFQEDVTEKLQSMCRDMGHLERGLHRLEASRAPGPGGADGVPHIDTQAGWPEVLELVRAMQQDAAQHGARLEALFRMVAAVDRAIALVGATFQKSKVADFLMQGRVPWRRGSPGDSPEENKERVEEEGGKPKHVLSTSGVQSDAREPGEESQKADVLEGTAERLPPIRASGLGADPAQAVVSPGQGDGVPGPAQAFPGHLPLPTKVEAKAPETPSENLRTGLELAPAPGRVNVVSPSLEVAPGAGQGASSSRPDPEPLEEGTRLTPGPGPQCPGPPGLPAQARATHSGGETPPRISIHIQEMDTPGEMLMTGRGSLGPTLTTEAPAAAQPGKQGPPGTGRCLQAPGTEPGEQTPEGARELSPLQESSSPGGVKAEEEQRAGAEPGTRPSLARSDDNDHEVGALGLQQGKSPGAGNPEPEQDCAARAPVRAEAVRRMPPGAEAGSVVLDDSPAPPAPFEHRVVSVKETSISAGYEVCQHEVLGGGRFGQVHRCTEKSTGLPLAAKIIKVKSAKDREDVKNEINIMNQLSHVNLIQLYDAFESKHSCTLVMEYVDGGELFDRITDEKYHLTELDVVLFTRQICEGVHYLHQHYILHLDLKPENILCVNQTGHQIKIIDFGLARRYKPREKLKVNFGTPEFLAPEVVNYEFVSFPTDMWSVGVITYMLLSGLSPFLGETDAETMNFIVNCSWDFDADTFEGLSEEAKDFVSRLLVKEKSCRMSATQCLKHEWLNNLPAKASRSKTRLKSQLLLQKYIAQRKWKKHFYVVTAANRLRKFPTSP

ROCK2 = ROCK2 (Homo sapiens, UniProt O75116); assay: binding to immobilized V16742 (IVA1/IVA2, HeLa lysate, MS)
CK1e = CK1e (Homo sapiens, UniProt P49674); assay: as above
CK1e, sequence (P49674 whole entry): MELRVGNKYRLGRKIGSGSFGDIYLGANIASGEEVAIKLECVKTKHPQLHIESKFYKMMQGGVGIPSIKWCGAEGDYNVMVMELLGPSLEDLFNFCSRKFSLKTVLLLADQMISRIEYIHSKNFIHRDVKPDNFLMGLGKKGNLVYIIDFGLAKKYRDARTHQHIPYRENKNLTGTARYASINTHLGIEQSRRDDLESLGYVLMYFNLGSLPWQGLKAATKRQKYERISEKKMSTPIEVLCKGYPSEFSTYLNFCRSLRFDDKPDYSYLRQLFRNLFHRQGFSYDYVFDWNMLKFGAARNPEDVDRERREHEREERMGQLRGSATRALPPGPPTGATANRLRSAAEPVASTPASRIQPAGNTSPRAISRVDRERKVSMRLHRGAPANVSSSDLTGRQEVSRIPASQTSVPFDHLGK
Protocol: Using the three populations of SILAC-labelled cells and the three different inhibitor resins, two parallel experiments termed as IVA1 (In Vitro Association, Setting 1) and IVA2 (In Vitro Association, Setting 2) were performed. […] In IVA2, SILAC encoded HeLa cells lysates were subjected to two parallel rounds of consecutive affinity purification at the highest ligand density where the supernatant left behind after the first IVA was used for the second round of IVA. An additional incubation of Hela cell lysate with control beads devoid of immobilized inhibitor was also performed to distinguish background binders.
A common IPI identifier template was assigned to peptides based on the MASCOT html-output file for the IVA2 setting in first experiment. The proteins hits identified based on unique peptides were filtered for mass error and MASCOT score. Eventually, the hits identified in both first and second IVA2 experiments were quantified for IVA2 setting of first experiment by MSQuant. […] A next round of sorting was done to filter out protein hits that are less than 50% enriched in the IVA second round compared to IVA first round. This is because at enrichment below 50%, there could be significant errors in deducing kd values for the corresponding targets. […] The same set of targets was also quantified in IVA2 and IVA1 settings of an independent second experiment.

T1 sequence (Q13882 whole entry): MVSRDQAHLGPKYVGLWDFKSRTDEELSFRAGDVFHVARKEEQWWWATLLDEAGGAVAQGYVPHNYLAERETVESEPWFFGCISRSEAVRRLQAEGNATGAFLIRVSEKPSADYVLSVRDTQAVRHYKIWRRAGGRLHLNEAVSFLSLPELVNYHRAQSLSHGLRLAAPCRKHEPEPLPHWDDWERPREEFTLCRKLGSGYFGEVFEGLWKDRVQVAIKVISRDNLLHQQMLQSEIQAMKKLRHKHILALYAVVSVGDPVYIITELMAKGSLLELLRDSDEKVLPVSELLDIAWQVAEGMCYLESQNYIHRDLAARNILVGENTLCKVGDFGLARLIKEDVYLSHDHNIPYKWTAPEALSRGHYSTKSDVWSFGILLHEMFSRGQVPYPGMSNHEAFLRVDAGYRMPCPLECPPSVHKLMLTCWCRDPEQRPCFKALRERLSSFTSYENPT
ROCK2, sequence (O75116 whole entry): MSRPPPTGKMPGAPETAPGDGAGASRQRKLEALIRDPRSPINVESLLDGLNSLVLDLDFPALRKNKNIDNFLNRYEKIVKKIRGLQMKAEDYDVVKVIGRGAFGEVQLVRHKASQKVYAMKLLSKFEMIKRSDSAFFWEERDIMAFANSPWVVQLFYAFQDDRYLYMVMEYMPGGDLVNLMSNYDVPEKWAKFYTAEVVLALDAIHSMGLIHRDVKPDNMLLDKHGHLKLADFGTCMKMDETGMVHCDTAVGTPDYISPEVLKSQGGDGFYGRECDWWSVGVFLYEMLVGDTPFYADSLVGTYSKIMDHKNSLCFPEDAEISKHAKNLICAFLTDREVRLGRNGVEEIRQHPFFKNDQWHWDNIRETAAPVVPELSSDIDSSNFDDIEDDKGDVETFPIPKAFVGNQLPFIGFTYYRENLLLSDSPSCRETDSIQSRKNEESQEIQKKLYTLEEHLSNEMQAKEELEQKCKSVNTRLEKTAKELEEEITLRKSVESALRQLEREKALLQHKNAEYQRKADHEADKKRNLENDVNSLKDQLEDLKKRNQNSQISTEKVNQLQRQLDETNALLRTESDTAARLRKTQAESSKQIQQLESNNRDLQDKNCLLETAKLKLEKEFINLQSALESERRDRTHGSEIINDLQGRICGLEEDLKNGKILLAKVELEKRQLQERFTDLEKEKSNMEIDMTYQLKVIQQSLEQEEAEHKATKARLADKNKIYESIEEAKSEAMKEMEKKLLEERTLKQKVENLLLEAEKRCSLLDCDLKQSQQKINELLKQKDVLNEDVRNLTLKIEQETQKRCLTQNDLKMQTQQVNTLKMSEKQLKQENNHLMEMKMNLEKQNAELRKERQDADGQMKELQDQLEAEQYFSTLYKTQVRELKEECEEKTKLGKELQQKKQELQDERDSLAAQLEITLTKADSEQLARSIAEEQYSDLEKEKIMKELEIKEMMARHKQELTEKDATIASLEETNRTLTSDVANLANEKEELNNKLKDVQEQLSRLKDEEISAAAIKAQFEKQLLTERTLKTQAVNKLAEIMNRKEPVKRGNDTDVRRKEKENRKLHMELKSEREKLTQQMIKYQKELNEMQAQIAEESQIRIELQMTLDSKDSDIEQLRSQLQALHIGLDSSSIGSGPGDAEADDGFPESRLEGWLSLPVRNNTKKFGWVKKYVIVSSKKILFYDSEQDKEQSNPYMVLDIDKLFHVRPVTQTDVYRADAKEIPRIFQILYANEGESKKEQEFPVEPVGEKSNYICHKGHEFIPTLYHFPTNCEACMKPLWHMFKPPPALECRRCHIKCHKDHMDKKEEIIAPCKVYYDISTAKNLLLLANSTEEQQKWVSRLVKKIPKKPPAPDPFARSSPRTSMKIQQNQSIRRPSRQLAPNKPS

Compound: COc1cc2ncnc(Nc3ccc(F)c(Cl)c3)c2cc1OCCCN [AX14596]
- pKi (BRK (PTK6)): 4.35 and 4.34
- r (3 mg/1 mg lysate) (BRK (PTK6)): 2.56
- r (5 h/2.5 h inc. time) (BRK (PTK6)): 0.96
- rAVERAGE (2. inc/1. inc) (BRK (PTK6)): 0.31
- rAVERAGE (control/1. inc) (BRK (PTK6)): 0.02
- % BOUND (BRK (PTK6); bound to AX14596 beads): 69%
- pKi (SgK085 (MYLK3)): 3.73
- r (3 mg/1 mg lysate) (SgK085 (MYLK3)): 2.56
- r (5 h/2.5 h inc. time) (SgK085 (MYLK3)): 0.97
- rAVERAGE (2. inc/1. inc) (SgK085 (MYLK3)): 0.65
- rAVERAGE (control/1. inc) (SgK085 (MYLK3)): 0.00

Compound: CC(C)n1c(=O)ccc2cnc(Nc3ccc(OCCN)cc3)nc21 [V16742]
- affinity class of target for V16742 (ROCK2): Very low affinity target not significantly enriched in IVA2

Compound: CC(C)n1c(=O)ccc2cnc(Nc3ccc(OCCN)cc3)nc21 [compound 16742]
- pKd (CK1e): 4.89
- Percent bound at 1.87 μM 16742 conc (CK1e; CK1e, EXPERIMENT 1): 6.91%
- Percent bound at 8.74 μM 16742 conc (CK1e; CK1e, EXPERIMENT 1): 34.02%
- Percent bound at 52 μM 16742 conc (CK1e; CK1e, EXPERIMENT 1): 79.64%
- Percent bound at 1.87 μM 16742 conc (CK1e; CK1e, EXPERIMENT 2): 7.41%
- Percent bound at 8.74 μM 16742 conc (CK1e; CK1e, EXPERIMENT 2): 37.16%
- Percent bound at 52 μM 16742 conc (CK1e; CK1e, EXPERIMENT 2): 88.21%
- pKd (CK1e; Kd, CK1e): 4.84
- pKd (CK1e; Kd, CK1e, EXPERIMENT 1): 4.79
